Measurements published in patent publication US5118675A, “Quinoxaline phosphono-amino acids” (American Home Products Corporation, priority 1991, dated 1992).

Columns and labels:
NMDA receptor = test: Displacement of tritiated CPP ([3H] CPP binding) in rat frontal cortex homogenates
Procedure: CPP binding at 10 μM concentrations. The IC50 calculated for these compounds is as follows: […]

NMDA-lethality = NMDA-lethality model in mice (antagonism of NMDA in vivo, survival); parameters: species or system mouse (male Swiss-albino, CD-1 strain); conditions: Mus musculus, ip, 0.5 h; test compound i.p. 30 min before NMDA 195 mg/kg i.p.; 30 min observation
Procedure: Male Swiss-albino mice (CD-1 strain, Charles River) 18-22 grams in weight, after 18 hours of food deprivation, were habituated to an observation chamber for 30 minutes. The mice were pretreated with the representative test compound followed thirty minutes later with NMDA, 195 mg/kg, i.p., which is a dose normally causing 90% mortality resulting from motor seizures including uncontrollable hind leg scratching or limbs and/or torso muscle jerking with loss of righting reflex followed by death within the 30 minute observation period after NMDA administration. From the latter, the ED50 for survival is determined.

Row | Compound | IC50 (NMDA receptor) [nM] | ED50 (NMDA-lethality) [mg/kg]
1 | COc1cc2nc(CC(N)C(=O)O)c(CP(=O)(O)O)nc2cc1OC (stereo not drawn) [Example 11, α-Amino-6,7-dimethoxy-3-(phosphonomethyl)-2-quinoxalinepropanoic Acid] | 832 | –
2 | N[C@@H](CCC(=O)O)C(=O)O [L-glutamic acid, reference compound] | 64 | –
3 | NC(Cc1nc2cc(F)c(F)cc2nc1CP(=O)(O)O)C(=O)O (stereo not drawn) [Example 10, α-Amino-6,7-difluoro-3-(phosphonomethyl)-2-quinoxalinepropanoic Acid] | 166 | –
4 | NC(Cc1nc2ccccc2nc1CP(=O)(O)O)C(=O)O (single isomer, unassigned) [Laevoisomer of Example 3, (-)-α-amino-3-(phosphonomethyl)-2-quinoxalinepropanoic acid] | 29 | 1.52
5 | NC(Cc1nc2ccccc2nc1CP(=O)(O)O)C(=O)O (racemic) [Example 1, α-Amino-3-(phosphonomethyl)-2-quinoxalinepropanoic Acid] | 110 | 3.72
6 | D(-)-2-amino-5-phosphono-heptanoic acid [D(-)-2-amino-5-phosphonoheptanoic acid, reference compound] | 639 | –
7 | NC(Cc1nc2cc3ccccc3cc2nc1CP(=O)(O)O)C(=O)O (stereo not drawn) [Example 5, α-Amino-3-(phosphonomethyl)-2-benzo[g]quinoxalinepropanoic Acid] | 6 | 5.3
8 | Cc1cc2nc(CC(N)C(=O)O)c(CP(=O)(O)O)nc2cc1C (stereo not drawn) [Example 4, α-Amino-6,7-dimethyl-3-(phosphonomethyl)-2-quinoxalinepropanoic Acid] | 22 | –
9 | NC(Cc1nc2cc(Cl)c(Cl)cc2nc1CP(=O)(O)O)C(=O)O (stereo not drawn) [Example 7, α-Amino-6,7-dichloro-3-(phosphonomethyl)-2-quinoxalinepropanoic Acid] | 4 | 1.58
10 | NC(Cc1nc2cc(Cl)ccc2nc1CP(=O)(O)O)C(=O)O (stereo not drawn) [Example 8, α-Amino-7-chloro-3-(phosphonomethyl)-2-quinoxalinepropanoic Acid] | 24 | 1.13
